In publication PMC11195807, “Development of a multi-targeted chemotherapeutic approach based on G-quadruplex stabilisation and carbonic anhydrase inhibition” (Journal of Enzyme Inhibition and Medicinal Chemistry, 2024):

Each compound was assayed on GQ structures (assay: BG4 immunofluorescence of GQ foci, HeLa cells in normoxia). Conditions: 24 h, 35.0 µM S-4,0, 40.0 µM C-4,2, 37.5 µM C-5,2, 2 µM RHPS4, over DMSO.
Type: cell-based
Excerpt: After measuring the viability of HeLa cells upon treatment with the newly synthesised MTDLs mentioned above, we probed the capability of the three most cytotoxic ones (S-4,0, C-4,2, and C-5,2) to affect the formation of GQ structures by immunofluorescence (IF) microscopy, using the BG4 antibody that selectively recognises the GQ structures. As it can be noticed in Figure 6, the fluorescence intensity of the total number of GQ foci increased by around 30% after treatment with both the coumarin derivative C-4,2 and the reference GQ binder RHPS4, whereas it was not affected by S-4,0 and C-5,2. […] On the contrary, the levels of GQ structures were influenced neither by the treatment with the sulphonamide S-4,0 nor by the coumarin C-5,2, despite their ability to thermally stabilise some GQ-forming sequences in vitro.
Figure 6. (A) Representative fields showing G4 foci formation detected by immunofluorescence in HeLa cells treated for 24 h with 35.0 µM S-4,0, 40.0 µM C-4,2, and 37.5 µM C-5,2 or an equivalent amount of vehicle (0.1% DMSO). As a positive control, cells were treated with 2 µM RHPS4 (a well-established GQ ligand)[68] for 24 h. Scale bar: 10 µm. Upper panels: the merged channels of BG4-stained GQ structures (magenta) and Hoechst-counterstained nuclei (grey) are reported. Lower panels: enlargements from the pictures in the upper panels. (B) Quantitative analysis of the fluorescence intensity of the total number of GQ foci. An average of 50 cells were screened for each condition and the results are expressed as a fold change of fluorescence intensity (anti-GQ signal) over the negative control (DMSO). Histograms show the mean ± SD of three independent experiments. The statistical significance was calculated using a one-way ANOVA test on GraphPad Prism 8.0.2 (ns: not significant, **: p < 0.01).
For the IF experiments in the presence of normal oxygen levels, HeLa cells were seeded on sterile coverslips, in a 24-well plate, at a density of 90,000 cells per well, and incubated overnight. Then, cells were treated with a sublethal concentration of each investigated MTDL or an equivalent amount of vehicle (0.1% DMSO), for 24 h. As positive control, cells were exposed for 24 h to 2 µM RHPS4. As regards the IF experiments under hypoxic conditions, HeLa were seeded on sterile coverslips, in a 24-well plate, at a density of 50,000 cells per well, and incubated overnight. […] From there, the cellular and nuclear foci were segmented, and their number or fluorescence intensity was quantified by using the Image Analysis package of ZEISS ZEN 3.1 software.
`COc1ccc2cc3[n+](cc2c1OCCCCn1cc(-c2ccc(S(N)(=O)=O)cc2)nn1)CCc1cc2c(cc1-3)OCO2` [Compound 30, 10-Methoxy-9–(4–(4-(4-sulfamoylphenyl)-1H-1,2,3-triazol-1-yl)butoxy)-5,6-dihydro-[1,3]dioxolo[4,5-g]isoquinolino[3,2-a]isoquinolin-7-ium hexafluorophosphate] was tested, and the “increase of fluorescence intensity of the total number of GQ foci” value (from here on “increase”) was “not affected”.
For `COc1ccc2cc3[n+](cc2c1OCCCCn1cc(COc2ccc4ccc(=O)oc4c2)nn1)CCc1cc2c(cc1-3)OCO2` [Compound 37, 10-Methoxy-9–(4-(4-(((2-oxo-2H-chromen-7-yl)oxy)methyl)-1H-1,2,3-triazol-1-yl)butoxy)-5,6-dihydro-[1,3]dioxolo[4,5-g]isoquinolino[3,2-a]isoquinolin-7-ium hexafluorophosphate], the “increase” value was “around 30%”.
With `COc1ccc2cc3[n+](cc2c1OCCCCCn1cc(COc2ccc4ccc(=O)oc4c2)nn1)CCc1cc2c(cc1-3)OCO2` [Compound 39, 10-Methoxy-9-((5–(4-(((2-oxo-2H-chromen-7-yl)oxy)methyl)-1H-1,2,3-triazol-1-yl)pentyl)oxy)-5,6-dihydro-[1,3]dioxolo[4,5-g]isoquinolino[3,2-a]isoquinolin-7-ium hexafluorophosphate] the “increase” value was “not affected”.
